Measured values reported in patent US4031211A, “Adriamycin esters, their preparation and use” (priority 1975, dated 1977).
Where two headings read alike, the source gives them in different places.

Tests used:
[1] = test system: Ascites sarcoma 180; assay: Antitumor effect on ascites sarcoma 180 in mice; settings: for LTS (long term survivors, > 60 days) / TC (median survival time as compared to untreated controls) / TOX (mice which showed toxic lesions at the autopsy): Table 1
Experimental: (§1) The compounds according to the invention were tested on several in vitro systems and experimental mouse tumors, in comparison with adriamycin.

[2] = test system: L 1210 leukemia; assay: Antitumor effect on L 1210 leukemia in mice
Experimental: as §1

[3] = test system: Gross leukemia; assay: Antitumor effect on Gross leukemia in mice; settings: for TC (median survival time as compared to untreated controls) / TOX (mice which showed toxic lesions at the autopsy): Table 1
Experimental: as §1

[4] = test system: solid sarcoma 180; settings: Table 2, i.v. per 5 days
Experimental: as §1

[5] = test system: experimental mouse tumors; assay: Antitumor/therapeutic activity and toxicity in experimental mouse tumors, overall statements; format: in vivo
[6] = test system: Moloney sarcoma virus; assay: Inhibition of Moloney sarcoma virus-induced foci in mouse embryo fibroblasts; format: cell-based; settings: text on Table 6, in vitro
Experimental: ^2 Inhibition of Moloney sarcoma virus-induced foci in mouse embryo
fibroblasts proliferation (treatment per 72 hours)

[7] = Table 4, i.p. on day 1, 2 mg./kg.
[8] = Table 4, i.p. on day 1, 4 mg./kg.
[9] = Table 4, i.p. on day 1, 8 mg./kg.
[10] = Table 1, first experiment, ip, day 1, 0.2 mg./kg.
[11] = Table 1, first experiment, ip, day 1, 1 mg./kg.
[12] = Table 1, first experiment, ip, day 1, 5 mg./kg.
[13] = Table 1, first experiment, ip, day 1, 10 mg./kg.
[14] = Table 1, second experiment, ip, day 1, 10 mg./kg.
[15] = Table 1, second experiment, ip, day 1, 12 mg./kg.
[16] = Table 1, second experiment, ip, day 1, 15 mg./kg.
[17] = Table 4, i.p. on day 1, 10 mg./kg.
[18] = Table 5, first experiment, iv, days 1,2,3, 4.5 mg./kg.
[19] = Table 5, second experiment, iv, days 1,2,3, 3.5 mg./kg.
[20] = Table 5, first experiment, iv, days 1,2,3, 6 mg./kg.

## COc1cccc2c1C(=O)c1c(O)c3c(c(O)c1C2=O)C[C@@](O)(C(=O)CO)C[C@@H]3O[C@H]1C[C@H](N)[C@H](O)[C@H](C)O1 [Adriamycin]
[1]; ip, day 1, 1 mg./kg.
  LTS (long term survivors, > 60 days): 3/10
  TC (median survival time as compared to untreated controls): 243%
  TOX (mice which showed toxic lesions at the autopsy): 0/10
[1]; ip, day 1, 5 mg./kg.
  LTS (long term survivors, > 60 days): 3/10
  TC (median survival time as compared to untreated controls): 150%
  TOX (mice which showed toxic lesions at the autopsy): 0/10
[1]; Table 3, ip, day 1, 2 mg./kg.
  LTS: 1/10
  TC: 203%
[1]; Table 3, ip, day 1, 4 mg./kg.
  LTS: 2/10
  TC: 242%
[1]; Table 3, ip, day 1, 8 mg./kg.
  LTS: 2/10
  TC: 127%
  TOX: 8/10
[1]; [7]
  LTS: 4/10
  TC: 271%
[1]; [8]
  LTS: 5/10
  TC: 493%
  TOX: 1/10
[1]; [9]
  LTS: 3/10
  TC: 317%
  TOX: 4/10
[1]; Table 5, ip, day 1, 2 mg./kg.
  LTS: 4/10
  TC: 271%
[1]; Table 5, ip, day 1, 4 mg./kg.
  LTS: 5/10
  TC: 493%
  TOX: 1/10
[1]; Table 5, ip, day 1, 8 mg./kg.
  LTS: 3/10
  TC: 317%
  TOX: 4/10
[2]; [10]
  TC (median survival time as compared to untreated controls): 111%
[2]; [11]
  TC (median survival time as compared to untreated controls): 133%
[2]; [12]
  TC (median survival time as compared to untreated controls): 139%
[2]; [13]
  TC (median survival time as compared to untreated controls): 150%
  TOX (mice which showed toxic lesions at the autopsy): 3/10
[2]; [14]
  LTS (long term survivors, > 60 days): 1/10
  TC (median survival time as compared to untreated controls): 139%
  TOX (mice which showed toxic lesions at the autopsy): 1/10
[2]; [15]
  TC (median survival time as compared to untreated controls): 167%
  TOX (mice which showed toxic lesions at the autopsy): 2/10
[2]; [16]
  TC (median survival time as compared to untreated controls): 100%
  TOX (mice which showed toxic lesions at the autopsy): 6/10
[2]; Table 3, ip, day 1, 2.5 mg./kg.
  TC: 122%
[2]; Table 3, ip, day 1, 5 mg./kg.
  TC: 155%
[2]; Table 3, ip, day 1, 10 mg./kg.
  LTS: 2/9
  TC: 233%
  TOX: 2/9
[2]; Table 4, i.p. on day 1, 2.5 mg./kg.
  TC: 122%
[2]; Table 4, i.p. on day 1, 5 mg./kg.
  TC: 155%
[2]; [17]
  LTS: 2/9
  TC: 233%
  TOX: 2/9
[2]; Table 5, ip, day 1, 2.5 mg./kg.
  TC: 122%
[2]; Table 5, ip, day 1, 5 mg./kg.
  TC: 155%
[2]; Table 5, ip, day 1, 10 mg./kg.
  LTS: 2/9
  TC: 233%
  TOX: 2/9
[3]; iv, days 1,2,3, 3.5 mg./kg.
  TC (median survival time as compared to untreated controls): 143%
  TOX (mice which showed toxic lesions at the autopsy): 1/10
[3]; iv, days 1,2,3, 4.5 mg./kg.
  TC (median survival time as compared to untreated controls): 171%
[3]; iv, days 1,2,3, 6 mg./kg.
  TOX (mice which showed toxic lesions at the autopsy): 4/10
[3]; Table 5, first experiment, iv, days 1,2,3, 3.5 mg./kg.
  TC: 157%
[3]; [18]
  TC: 178%
[3]; [19]
  TC: 143%
  TOX: 1/10
[3]; Table 5, second experiment, iv, days 1,2,3, 4.5 mg./kg.
  TC: 171%
[4]; 2.5 mg./kg.
  % tumor growth at day 11: 42%
[4]; 3 mg./kg.
  % tumor growth at day 11: 33%

## CCCCCC(=O)OCC(=O)OCC(=O)C1(O)Cc2c(O)c3c(c(O)c2C(OC2CC(N)C(O)C(C)O2)C1)C(=O)c1c(OC)cccc1C3=O.Cl (centres unmarked) [adriamycin-14-0-hexanoyl glycolate, Adriamycin-14-0-Hexanoyl Glycolate Hydrochloride]
[1]; [7]
  LTS: 1/10
  TC: 250%
[1]; [8]
  LTS: 5/10
  TC: 493%
[1]; [9]
  LTS: 3/10
  TC: 346%
[1]; Table 4, i.p. on day 1, 16 mg./kg.
  TC: 128%
[2]; [7]
  TC: 133%
[2]; [8]
  TC: 144%
[2]; [9]
  LTS: 1/9
  TC: 155%
[5]
  toxicity compared with adriamycin: less toxic
[5]; tumor not given
  activity compared with adriamycin: as active as adriamycin

## CCCCCC(=O)SCC(=O)OCC(=O)C1(O)Cc2c(O)c3c(c(O)c2C(OC2CC(N)C(O)C(C)O2)C1)C(=O)c1c(OC)cccc1C3=O.Cl (centres unmarked) [adriamycin-14-0-hexanoyl thioglycolate, Adriamycin-14-0-Hexanoyl Thioglycolate Hydrochloride]
[1]
  antitumor effect compared with adriamycin: marked anti-tumor effect, slightly lower than that of adriamycin
[1]; Table 3, ip, day 1, 2 mg./kg.
  LTS: 1/10
  TC: 153%
  TOX: 1/10
[1]; Table 3, ip, day 1, 4 mg./kg.
  LTS: 2/10
  TC: 196%
  TOX: 1/10
[1]; Table 3, ip, day 1, 8 mg./kg.
  LTS: 2/10
  TC: 177%
[1]; Table 3, ip, day 1, 16 mg./kg.
  TC: 188%
  TOX: 6/10
[2]
  antitumor activity compared with adriamycin: marked anti-tumor effect, slightly lower than that of adriamycin
[2]; Table 3, ip, day 1, 4 mg./kg.
  TC: 133%
[2]; Table 3, ip, day 1, 8 mg./kg.
  TC: 155%
[2]; Table 3, ip, day 1, 16 mg./kg.
  LTS: 2/9
  TC: 170%
[5]
  toxicity compared with adriamycin: less toxic

## CCCCCCCCCCCC(=O)OCC(=O)OCC(=O)C1(O)Cc2c(O)c3c(c(O)c2C(OC2CC(N)C(O)C(C)O2)C1)C(=O)c1c(OC)cccc1C3=O.Cl (centres unmarked) [adriamycin-14-0-lauroyl glycolate, Adriamycin-14-0-Lauroyl Glycolate Hydrochloride]
[1]
  number of long term survivors compared with adriamycin: higher number of long term survivors
[1]; Table 5, ip, day 1, 2 mg./kg.
  LTS: 4/10
  TC: 436%
[1]; Table 5, ip, day 1, 4 mg./kg.
  LTS: 8/10
  TC: 493%
[1]; Table 5, ip, day 1, 8 mg./kg.
  TC: 385%
[1]; Table 5, ip, day 1, 16 mg./kg.
  TC: 242%
[2]; Table 5, ip, day 1, 2 mg./kg.
  TC: 135%
[2]; Table 5, ip, day 1, 4 mg./kg.
  TC: 141%
[2]; Table 5, ip, day 1, 8 mg./kg.
  TC: 165%
[2]; Table 5, ip, day 1, 16 mg./kg.
  LTS: 1/10
  TC: 200%
[3]
  increase of the median survival time compared with adriamycin: higher increase of the median survival time than does adriamycin
[3]; [18]
  TC: 136%
[3]; [20]
  LTS: 2/10
  TC: 257%
[3]; Table 5, first experiment, iv, days 1,2,3, 7.5 mg./kg.
  TC: 221%
[3]; Table 5, first experiment, iv, days 1,2,3, 9 mg./kg.
  TC: 128%
[3]; Table 5, second experiment, iv, days 1,2,3, 6 mg./kg.
  TC: 193%
[3]; Table 5, second experiment, iv, days 1,2,3, 7.5 mg./kg.
  TC: 214%
[6]
  activity on Moloney Sarcoma Virus: most active among all of them
[5]
  toxicity compared with adriamycin: less toxic than adriamycin

## CCCCCCCCCCCCCCCCCC(=O)OCC(=O)OCC(=O)C1(O)Cc2c(O)c3c(c(O)c2C(OC2CC(N)C(O)C(C)O2)C1)C(=O)c1c(OC)cccc1C3=O.Cl (centres unmarked) [adriamycin-14-0-stearoyl glycolate, Adriamycin-14-0-Stearoyl Glycolate Hydrochloride]
[1]
  antitumor effect compared with adriamycin: not significantly different from that of adriamycin
[1]; ip, day 1, 0.3 mg./kg.
  LTS (long term survivors, > 60 days): 1/10
  TC (median survival time as compared to untreated controls): 119%
[1]; ip, day 1, 1.6 mg./kg.
  LTS (long term survivors, > 60 days): 2/10
  TC (median survival time as compared to untreated controls): 222%
  TOX (mice which showed toxic lesions at the autopsy): 1/10
[1]; ip, day 1, 7.8 mg./kg.
  LTS (long term survivors, > 60 days): 1/10
  TC (median survival time as compared to untreated controls): 187%
  TOX (mice which showed toxic lesions at the autopsy): 1/10
[2]
  antitumor activity compared with adriamycin: as active as adriamycin
  toxicity compared with adriamycin: less toxic
[2]; [10]
  TC (median survival time as compared to untreated controls): 100%
[2]; [11]
  TC (median survival time as compared to untreated controls): 133%
  TOX (mice which showed toxic lesions at the autopsy): 1/10
[2]; [12]
  TC (median survival time as compared to untreated controls): 133%
[2]; [13]
  TC (median survival time as compared to untreated controls): 139%
[2]; [14]
  TC (median survival time as compared to untreated controls): 128%
[2]; [15]
  TC (median survival time as compared to untreated controls): 150%
[2]; [16]
  TC (median survival time as compared to untreated controls): 150%
[3]
  antitumor activity compared with adriamycin: as active as adriamycin
  toxicity compared with adriamycin: less toxic
[3]; iv, days 1,2,3, 4.5 mg./kg.
  TC (median survival time as compared to untreated controls): 143%
  TOX (mice which showed toxic lesions at the autopsy): 1/10
[3]; iv, days 1,2,3, 6 mg./kg.
  TC (median survival time as compared to untreated controls): 186%
[3]; iv, days 1,2,3, 7.5 mg./kg.
  TC (median survival time as compared to untreated controls): 186%
[3]; iv, days 1,2,3, 9 mg./kg.
  TC (median survival time as compared to untreated controls): 207%
[4]; 2.5 mg./kg.
  % tumor growth at day 11: 58%
[4]; 3 mg./kg.
  % tumor growth at day 11: 58%
[4]; 3.5 mg./kg.
  % tumor growth at day 11: 52%
[4]; 4 mg./kg.
  % tumor growth at day 11: 37%
